biological target: Human TRPA1 (Homo sapiens, UniProt O75762); assay: Assay 1: In vitro cellular testing of TRPA1 modulation (CHO-TREx, Fluo-3 calcium fluorescence, AITC agonist); type: cell-based; parameters: expressed in transfected cells; host or cells: CHO-TREx cells (Invitrogen), vector pcDNA4/TO; details: CHO-TREx cells expressing human TRPA1; Fluo-3 fluorescence (FLIPR/Tetra); agonist 15 μM allyl isothiocyanate (AITC); 30 minute antagonist incubation
Outline: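 Antagonist potency is the 50% reduction of the AITC (15 μM) calcium response, Hill-fitted against no-antagonist and 10 μM ruthenium red controls. Fluo-3-loaded (4 μM) CHO-TREx cells with tetracycline-inducible human TRPA1 got compound in HEPES saline pH 7.4 for 30 min, usually from 10 μM in three-fold dilutions.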

Chain of Human TRPA1 (O75762 whole entry): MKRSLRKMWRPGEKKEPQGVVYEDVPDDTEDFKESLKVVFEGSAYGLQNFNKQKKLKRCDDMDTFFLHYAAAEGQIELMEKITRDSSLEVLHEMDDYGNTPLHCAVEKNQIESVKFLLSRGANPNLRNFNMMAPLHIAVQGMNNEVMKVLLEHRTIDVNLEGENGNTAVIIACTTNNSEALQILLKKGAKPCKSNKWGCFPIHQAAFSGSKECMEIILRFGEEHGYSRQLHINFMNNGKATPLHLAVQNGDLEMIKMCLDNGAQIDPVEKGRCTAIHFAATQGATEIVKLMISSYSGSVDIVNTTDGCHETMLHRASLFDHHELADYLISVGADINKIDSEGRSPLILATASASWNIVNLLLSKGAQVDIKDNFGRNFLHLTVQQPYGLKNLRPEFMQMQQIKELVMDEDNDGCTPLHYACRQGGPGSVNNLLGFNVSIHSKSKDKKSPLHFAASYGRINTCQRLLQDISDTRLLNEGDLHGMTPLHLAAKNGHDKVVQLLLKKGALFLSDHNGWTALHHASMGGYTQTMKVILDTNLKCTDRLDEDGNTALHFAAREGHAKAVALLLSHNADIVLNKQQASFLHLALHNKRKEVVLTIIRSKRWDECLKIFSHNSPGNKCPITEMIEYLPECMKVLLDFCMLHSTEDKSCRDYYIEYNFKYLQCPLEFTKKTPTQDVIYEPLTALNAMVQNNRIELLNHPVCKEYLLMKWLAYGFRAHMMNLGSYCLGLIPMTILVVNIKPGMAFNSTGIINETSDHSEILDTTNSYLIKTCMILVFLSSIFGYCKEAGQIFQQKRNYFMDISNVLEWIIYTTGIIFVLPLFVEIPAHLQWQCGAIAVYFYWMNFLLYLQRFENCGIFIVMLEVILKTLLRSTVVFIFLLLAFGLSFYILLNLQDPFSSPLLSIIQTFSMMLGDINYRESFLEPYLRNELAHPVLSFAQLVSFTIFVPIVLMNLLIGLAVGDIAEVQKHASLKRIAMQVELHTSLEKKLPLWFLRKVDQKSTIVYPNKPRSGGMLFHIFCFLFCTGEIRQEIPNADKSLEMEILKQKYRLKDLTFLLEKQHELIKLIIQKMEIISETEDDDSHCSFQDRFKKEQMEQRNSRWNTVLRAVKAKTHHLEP

Row | SMILES | IC50 [nM]
1 | O=C(NCc1cc(-c2ccc(C(F)(F)F)cc2)nc(N2CCN(Cc3ccccc3)CC2)c1)[C@@H]1CCCN1S(=O)(=O)c1ccc(Cl)s1 [Example 367, N-({2-(4-Benzylpiperazin-1-yl)-6-[4-(trifluoromethyl)phenyl]pyridin-4-yl}methyl)-1-[(5-chlorothiophen-2-yl)sulfonyl]-L-prolinamide] | 18
2 | O=C(NCc1cc(-c2ccc(C(F)(F)F)cc2)nc(N2CCN(Cc3ccccc3)CC2)c1)[C@@H]1C=CCN1S(=O)(=O)c1ccc(Cl)s1 [Example 368, (2S)—N-({2-(4-Benzylpiperazin-1-yl)-6-[4-(trifluoromethyl)phenyl]pyridin-4-yl}methyl)-1-[(5-chlorothiophen-2-yl)sulfonyl]-2,5-dihydro-1H-pyrrole-2-carboxamide] | 418
3 | CC(C)CN1CCN(c2cc(CNC(=O)[C@@H]3CCCN3S(=O)(=O)c3ccc(Cl)s3)cc(-c3ccc(C(F)(F)F)cc3)n2)CC1 [Example 369, 1-[(5-Chlorothiophen-2-yl)sulfonyl]-N-({2-[4-(2-methylpropyl)piperazin-1-yl]-6-[4-(trifluoromethyl)phenyl]pyridin-4-yl}methyl)-L-prolinamide] | 79
4 | CC(C)CN1CCN(c2cc(CNC(=O)[C@@H]3CCCN3S(=O)(=O)c3ccc(F)cc3)cc(-c3ccc(C(F)(F)F)cc3)n2)CC1 [Example 370, 1-[(4-Fluorophenyl)sulfonyl]-N-({2-[4-(2-methylpropyl)piperazin-1-yl]-6-[4-(trifluoromethyl)phenyl]pyridin-4-yl}methyl)-L-prolinamide] | 115
5 | O=C(NCc1cc(NCc2cccnc2)nc(-c2ccc(C(F)(F)F)cc2)c1)[C@@H]1CCCN1S(=O)(=O)c1ccc(Cl)s1 [Example 371, 1-[(5-Chlorothiophen-2-yl)sulfonyl]-N-({2-[(pyridin-3-ylmethyl)amino]-6-[4-(trifluoromethyl)phenyl]pyridin-4-yl}methyl)-L-prolinamide] | 2060
6 | CNc1cc(CNC(=O)[C@@H]2C=CCN2S(=O)(=O)c2ccc(F)cc2)cc(-c2ccc(C(F)(F)F)cc2)n1 [Example 372, (2S)-1-[(4-Fluorophenyl)sulfonyl]-N-({2-(methylamino)-6-[4-(trifluoromethyl)phenyl]pyridin-4-yl}methyl)-2,5-dihydro-1H-pyrrole-2-carboxamide] | 1610
7 | O=C(NCc1cc(-c2ccc(C(F)(F)F)cc2)nc(N2CCN(Cc3ccccc3)CC2)c1)[C@@H]1CCCN1S(=O)(=O)c1ccc(F)cc1 [Example 373, N-({2-(4-Benzylpiperazin-1-yl)-6-[4-(trifluoromethyl)phenyl]pyridin-4-yl}methyl)-1-[(4-fluorophenyl)sulfonyl]-L-prolinamide] | 43
8 | O=C(NCc1cc(NCc2ccccn2)nc(-c2ccc(C(F)(F)F)cc2)c1)[C@@H]1CC(F)(F)CN1S(=O)(=O)c1ccc(F)cc1 [Example 374, 4,4-Difluoro-1-[(4-fluorophenyl)sulfonyl]-N-({2-[(pyridin-2-ylmethyl)amino]-6-[4-(trifluoromethyl)phenyl]pyridin-4-yl}methyl)-L-prolinamide] | 2090
9 | O=C(NCc1cc(-c2ccc(C(F)(F)F)cc2)nc(N2CCN(Cc3ccccn3)CC2)c1)[C@@H]1CC(F)(F)CN1S(=O)(=O)c1ccc(Cl)s1 [Example 375, 1-[(5-Chlorothiophen-2-yl)sulfonyl]-4,4-difluoro-N-({2-[4-(pyridin-2-ylmethyl)piperazin-1-yl]-6-[4-(trifluoromethyl)phenyl]pyridin-4-yl}methyl)-L-prolinamide] | 1940
10 | CN(C)c1cc(CNC(=O)[C@@H]2CC(F)(F)CN2S(=O)(=O)c2ccc(Cl)s2)cc(-c2ccc(C(F)(F)F)cc2)n1 [Example 376, 1-[(5-Chlorothiophen-2-yl)sulfonyl]-N-({2-(dimethylamino)-6-[4-(trifluoromethyl)phenyl]pyridin-4-yl}methyl)-4,4-difluoro-L-prolinamide] | 241
11 | O=C(NCc1cc(-c2ccc(C(F)(F)F)cc2)nc(N2CCN(Cc3ccccc3)CC2)c1)[C@@H]1CC(F)(F)CN1S(=O)(=O)c1ccc(Cl)s1 [Example 377, N-({2-(4-Benzylpiperazin-1-yl)-6-[4-(trifluoromethyl)phenyl]pyridin-4-yl}methyl)-1-[(5-chlorothiophen-2-yl)sulfonyl]-4,4-difluoro-L-prolinamide] | 4710
12 | CNc1cc(CNC(=O)[C@@H]2C=CCN2S(=O)(=O)c2ccc(Cl)s2)cc(-c2ccc(C(F)(F)F)cc2)n1 [Example 379, (2S)-1-[(5-Chlorothiophen-2-yl)sulfonyl]-N-({2-(methylamino)-6-[4-(trifluoromethyl)phenyl]pyridin-4-yl}methyl)-2,5-dihydro-1H-pyrrole-2-carboxamide] | 380
13 | O=C(NCc1cc(NCc2ccccn2)nc(-c2ccc(C(F)(F)F)cc2)c1)[C@@H]1C=CCN1S(=O)(=O)c1ccc(F)cc1 [Example 380, (2S)-1-[(4-Fluorophenyl)sulfonyl]-N-({2-[(pyridin-2-ylmethyl)amino]-6-[4-(trifluoromethyl)phenyl]pyridin-4-yl}methyl)-2,5-dihydro-1H-pyrrole-2-carboxamide] | 523
14 | O=C(NCc1cc(-c2ccc(C(F)(F)F)cc2)nc(N2CCN(Cc3ccncc3)CC2)c1)[C@@H]1CC(F)(F)CN1S(=O)(=O)c1ccc(Cl)s1 [Example 381, 1-[(5-Chlorothiophen-2-yl)sulfonyl]-4,4-difluoro-N-({2-[4-(pyridin-4-ylmethyl)piperazin-1-yl]-6-[4-(trifluoromethyl)phenyl]pyridin-4-yl}methyl)-L-prolinamide] | 729
15 | O=C(NCc1cc(NCc2ccccn2)nc(-c2ccc(C(F)(F)F)cc2)c1)[C@@H]1CC(F)(F)CN1S(=O)(=O)c1ccc(Cl)s1 [Example 382, 1-[(5-Chlorothiophen-2-yl)sulfonyl]-4,4-difluoro-N-({2-[(pyridin-2-ylmethyl)amino]-6-[4-(trifluoromethyl)phenyl]pyridin-4-yl}methyl)-L-prolinamide] | 5090
16 | CC(C)CN1CCN(c2cc(CNC(=O)[C@@H]3CC(F)(F)CN3S(=O)(=O)c3ccc(Cl)s3)cc(-c3ccc(C(F)(F)F)cc3)n2)CC1 [Example 383, 1-[(5-Chlorothiophen-2-yl)sulfonyl]-4,4-difluoro-N-({2-[4-(2-methylpropyl)piperazin-1-yl]-6-[4-(trifluoromethyl)phenyl]pyridin-4-yl}methyl)-L-prolinamide] | 488
17 | CNc1cc(CNC(=O)[C@@H]2CC(F)(F)CN2S(=O)(=O)c2ccc(Cl)s2)cc(-c2ccc(C(F)(F)F)cc2)n1 [Example 384, 1-[(5-Chlorothiophen-2-yl)sulfonyl]-4,4-difluoro-N-({2-(methylamino)-6-[4-(trifluoromethyl)phenyl]pyridin-4-yl}methyl)-L-prolinamide] | 2220
18 | O=C(NCc1cc(NCc2ccncc2)nc(-c2ccc(C(F)(F)F)cc2)c1)[C@@H]1CCCN1S(=O)(=O)c1ccc(F)cc1 [Example 385, 1-[(4-Fluorophenyl)sulfonyl]-N-({2-[(pyridin-4-ylmethyl)amino]-6-[4-(trifluoromethyl)phenyl]pyridin-4-yl}methyl)-L-prolinamide] | 978
19 | CC(C)CN1CCN(c2cc(CNC(=O)[C@@H]3CC(F)(F)CN3S(=O)(=O)c3ccc(F)cc3)cc(-c3ccc(C(F)(F)F)cc3)n2)CC1 [Example 386, 4,4-Difluoro-1-[(4-fluorophenyl)sulfonyl]-N-({2-[4-(2-methylpropyl)piperazin-1-yl]-6-[4-(trifluoromethyl)phenyl]pyridin-4-yl}methyl)-L-prolinamide] | 311
20 | O=C(NCc1cc(-c2ccc(C(F)(F)F)cc2)nc(N2CCN(Cc3ccccn3)CC2)c1)[C@@H]1CC(F)(F)CN1S(=O)(=O)c1ccc(F)cc1 [Example 387, 4,4-Difluoro-1-[(4-fluorophenyl)sulfonyl]-N-({2-[4-(pyridin-2-ylmethyl)piperazin-1-yl]-6-[4-(trifluoromethyl)phenyl]pyridin-4-yl}methyl)-L-prolinamide] | 3050
21 | O=C(NCc1cc(-c2ccc(C(F)(F)F)cc2)nc(N2CCN(Cc3ccccc3)CC2)c1)[C@@H]1CC(F)(F)CN1S(=O)(=O)c1ccc(F)cc1 [Example 388, N-({2-(4-Benzylpiperazin-1-yl)-6-[4-(trifluoromethyl)phenyl]pyridin-4-yl}methyl)-4,4-difluoro-1-[(4-fluorophenyl)sulfonyl]-L-prolinamide] | 3520
22 | CC(C)CN1CCN(c2cc(CNC(=O)[C@@H]3C=CCN3S(=O)(=O)c3ccc(Cl)s3)cc(-c3ccc(C(F)(F)F)cc3)n2)CC1 [Example 389, (2S)-1-[(5-Chlorothiophen-2-yl)sulfonyl]-N-({2-[4-(2-methylpropyl)piperazin-1-yl]-6-[4-(trifluoromethyl)phenyl]pyridin-4-yl}methyl)-2,5-dihydro-1H-pyrrole-2-carboxamide] | 95
23 | CC(C)CN1CCN(c2cc(CNC(=O)[C@@H]3C=CCN3S(=O)(=O)c3ccc(F)cc3)cc(-c3ccc(C(F)(F)F)cc3)n2)CC1 [Example 390, (2S)-1-[(4-Fluorophenyl)sulfonyl]-N-({2-[4-(2-methylpropyl)piperazin-1-yl]-6-[4-(trifluoromethyl)phenyl]pyridin-4-yl}methyl)-2,5-dihydro-1H-pyrrole-2-carboxamide] | 382
24 | O=C(NCc1cc(NCc2ccncc2)nc(-c2ccc(C(F)(F)F)cc2)c1)[C@@H]1C=CCN1S(=O)(=O)c1ccc(Cl)s1 [Example 391, (2S)-1-[(5-Chlorothiophen-2-yl)sulfonyl]-N-({2-[(pyridin-4-ylmethyl)amino]-6-[4-(trifluoromethyl)phenyl]pyridin-4-yl}methyl)-2,5-dihydro-1H-pyrrole-2-carboxamide] | 797

— patent US8614201B2 (Janssen Pharmaceutica NV, priority 2009, dated 2013)
